Experimental data: US7592319B2, “Uses of DNA-PK” (Sloan-Kettering Institute for Cancer Research, priority 1998, dated 2009)

Tested on: cells derived from either Ku70 or Ku80 knock-out mice
Experiment: Survival experiments with Ku-deficient cells exposed to chemotherapeutic agents
Type: cell-based, mouse
Details: FIG. 12

bleomycin was tested, and the “sensitivity of Ku70 or Ku80 knock-out mouse cells to the agent (survival)” value was “very sensitive”.
For `COc1cccc2c1C(=O)c1c(O)c3c(c(O)c1C2=O)C[C@@](O)(C(=O)CO)C[C@@H]3O[C@H]1C[C@H](N)[C@H](O)[C@H](C)O1` [adriamycin], the “sensitivity of Ku70 or Ku80 knock-out mouse cells to the agent (survival)” value was “very sensitive”.
